Patent US12649712B2, “Indene compounds, pharmaceutical compositions thereof, and their therapeutic applications” (NucMito Pharmaceuticals Co. Ltd., priority 2020, dated 2026)

Assays:
[1] = system: alpha-smooth muscle actin (α-SMA); test: Inhibition of TGF-β induced expression of alpha-smooth muscle actin (α-SMA) in CFSC cells, western blot; assay type: cell-based; conditions: compound at 10 μM, TGF-β (10 ng/mL), 24 hours, decrease in band intensity vs TGF-β only
How it was run: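 Cells at 60–70% confluence in serum-free DMEM received compound at 10 μM plus TGF-β (10 ng/mL) for 24 h at 37 °C. NP-40 lysates were run on western blot for α-SMA and β-actin, with ECL bands quantified. % inhibition = decrease in band intensity versus TGF-β alone.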

[2] = system: CCl4-induced liver fibrosis in C57BL/6 mice; test: Antifibrotic activity in CCl4-induced liver fibrosis, Sirius red staining of liver samples; assay type: in vivo; conditions: C57/BL6 mice, oral once daily for 2 weeks; malotilate 60 mg/kg, A11 and B9 50 mg/kg
Method: CCl4-induced liver fibrosis was described previously. Henderson et al., Proc. Nat'l. Acad. Sci. U.S.A. 2006, 103, 5060-5; Henderson et al., Nat. Med. 2013, 19, 1617-24. Briefly, eight-week-old C57BL/6 mice were randomly divided into two groups: a control group and a CCl4 administered group. Liver fibrosis was induced by intraperitoneal administration of 25% CCl4 at 0.5 mL/kg body weight (diluted in corn oil) twice weekly for 6 weeks. Dosing was started during the last 2 weeks of CCl4 administration. Malotilate (Mal) as a reference and compounds A11, A23, and B9 were each freshly prepared by dissolving in PEG 400 and orally administered in a dosing volume of 10 mL/kg. The mice were stratified (n=6-8 per group) based on their body weights and dosed once daily for 2 weeks with a vehicle, malotilate (60 mg/kg), compound A11 (50 mg/kg), compound A23 (50 mg/kg), or compound B9 (50 mg/kg). Their body weights were monitored daily during the intervention period. At the terminal of treatment, the mice were sacrificed and their liver samples were processed as below.
The mice liver samples were all taken at the same position of each large lobe, and then post-fixed in a 10% buffered formaldehyde for 48 h. The fixed livers were embedded in paraffin for microtome slicing into 5-μm-thick sections. The tissue sections were mounted onto MS-coated glass slides, deparaffinized, and stained with picric acid-Sirius red. Stained sections were photographed using a microscope with a digital camera. Images were taken at a full resolution with a single image dimension set at 1,360×1,024 pixels.
Total RNA was extracted from the liver using an MOLPURE® TRIEASY™ Plus Total RNA Kit (Yeasen, Shanghai, China). Total RNA (5 μg) was reverse-transcribed using 1st strand cDNA Synthesis SuperMix for qPCR (gDNA digester plus) Kit (Yeasen, Shanghai, China). […]

| SMILES | inhibition at 10 µM [1] [%] | Sirius red pathological staining of liver samples: effect on fibrosis induced by CCl4 [2] |
| --- | --- | --- |
| CC1=C(CC(=O)O)c2cc(F)ccc2/C1=C\c1ccc(Oc2ccc(F)cc2)cc1 [Compound A11, 2-[(1Z)-5-Fluoro-1-{[4-(4-fluorophenoxy)phenyl]methylidene}-2-methyl-1H-inden-3-yl]acetic acid] | 80 to 90 | reversed the fibrosis induced by CCl4 |
| CC1=C(CC(=O)O)c2cc(F)ccc2/C1=C\c1ccc(C(C)C)cc1 [Compound B9, (Z)-2-(5-fluoro-2-methyl-1-(4-isopropylbenzylidene)-1H-inden-3-yl)acetic acid] | > 90 | reversed the fibrosis induced by CCl4 |
| CC1=C(CC(=O)O)c2cc(F)cc(F)c2/C1=C/c1ccc(Oc2ccc(F)cc2)cc1 [Compound E4, 2-[(1E)-5,7-Difluoro-2-methyl-1-({4-[4-fluorophenoxy]phenyl}methylidene)-1H-inden-3-yl]acetic acid] | > 90 | – |
| CC1=C(CC(=O)O)c2cc(F)cc(F)c2/C1=C/c1cccc(Oc2ccccc2)c1 [Compound E6, 2-[(1E)-5,7-Difluoro-1-(3-(phenoxy)benzylidene)-2-methyl-1H-inden-3-yl]-acetic acid] | > 90 | – |
| CC(C)OC(=O)C(C(=O)OC(C)C)=C1SC=CS1 [Mal, malotilate, reference compound] | – | reversed the fibrosis induced by CCl4 |
